Test system: patients after acute myocardial infarction
Experiment: TCM symptom score, total and single (chest pain, chest tightness, short breath, fatigue, palpitation, spontaneous perspiration, pale complexion), same clinical trial
Format: in vivo, human
Set-up: total score of TCM symptom, Mean / total score of TCM symptom, Min / total score of TCM symptom, Max / total score of TCM symptom, Md / change of total score of TCM symptom, Mean / change of total score of TCM symptom, Max / change of total score of TCM symptom, Md: scale not given here
Conditions: PP
Excerpt: 3508 patients who were in accordance with the diagnostic standards of AMI for 28 days to 2 years and differentiated as Qi deficiency and blood stagnation syndrome by TCM were studied. 0.5 g Chinese medicine composition prepared by the method of EXAMPLE 1 (Coded as QSYQ) was administrated half an hour after meal, 3 times per day.
They included the overall survival time, angina pectoris score, TCM symptom score and life quality score, where angina pectoris score, TCM symptom score and life quality score were evaluated at randomization, in 1st, 3rd, 6th, 9th, 12th month after treatment and 18th month after follow-up.
The analysis method referred to the angina pectoris score.

[1] = 1 month after treatment-baseline
[2] = 3 month after treatment-baseline
[3] = 3 months after treatment-baseline

CC(=O)Oc1ccccc1C(=O)O [Control group, aspirine]
change of palpitation −3, number of patients [1]: 0
change of palpitation −3, percent of patients [1]: (0.00%)
change of short breath 0, % of patients [1]: (77.53%)
change of short breath 0, number of patients [1]: 1132
change of short breath 2, % of patients [1]: (14.59%)
change of short breath 2, number of patients [1]: 213
change of short breath 4, % of patients [1]: (1.71%)
change of short breath 4, number of patients [1]: 25
change of short breath 6, % of patients [1]: (0.41%)
change of short breath 6, number of patients [1]: 6
change of short breath −2, % of patients [1]: (5.27%)
change of short breath −2, number of patients [1]: 77
change of short breath −4, % of patients [1]: (0.48%)
change of short breath −4, number of patients [1]: 7
change of short breath −6, % of patients [1]: (0.00%)
change of short breath −6, number of patients [1]: 0
change of spontaneous perspiration 0, number of patients [1]: 1068
change of spontaneous perspiration 0, percent of patients [1]: (73.15%)
change of spontaneous perspiration 1, number of patients [1]: 238
change of spontaneous perspiration 1, percent of patients [1]: (16.30%)
change of spontaneous perspiration 2, number of patients [1]: 48
change of spontaneous perspiration 2, percent of patients [1]: (3.29%)
change of spontaneous perspiration 3, number of patients [1]: 12
change of spontaneous perspiration 3, percent of patients [1]: (0.82%)
change of spontaneous perspiration −1, number of patients [1]: 77
change of spontaneous perspiration −1, percent of patients [1]: (5.27%)
change of spontaneous perspiration −2, number of patients [1]: 14
change of spontaneous perspiration −2, percent of patients [1]: (0.96%)
change of spontaneous perspiration −3, number of patients [1]: 3
change of spontaneous perspiration −3, percent of patients [1]: (0.21%)
change of total score of TCM symptom, Max [1]: 24.00
change of total score of TCM symptom, Md [1]: −1.00
change of total score of TCM symptom, Mean [1]: −2.00
change of total score of TCM symptom, Min [1]: −28.00
change of total score of TCM symptom, Max [2]: 19.00
change of total score of TCM symptom, Md [2]: −2.00
change of total score of TCM symptom, Mean [2]: −3.05
change of total score of TCM symptom, Min [2]: −28.00
distribution of total score of TCM symptom: Medium, number of patients (3 months after treatment): 489
distribution of total score of TCM symptom: Medium, percentage of patients (3 months after treatment): (33.79%)
distribution of total score of TCM symptom: Mild, number of patients (3 months after treatment): 946
distribution of total score of TCM symptom: Mild, percentage of patients (3 months after treatment): (65.38%)
distribution of total score of TCM symptom: Severe, number of patients (3 months after treatment): 12
distribution of total score of TCM symptom: Severe, percentage of patients (3 months after treatment): (0.83%)
fatigue score 0, % of patients (3 months after treatment): (28.28%)
fatigue score 0, number of patients (3 months after treatment): 409
fatigue score 2, % of patients (3 months after treatment): (59.75%)
fatigue score 2, number of patients (3 months after treatment): 864
fatigue score 4, % of patients (3 months after treatment): (11.41%)
fatigue score 4, number of patients (3 months after treatment): 165
fatigue score 6, % of patients (3 months after treatment): (0.55%)
fatigue score 6, number of patients (3 months after treatment): 8
pale complexion score 0, number of patients (3 months after treatment): 693
pale complexion score 0, percent of patients (3 months after treatment): (47.89%)
pale complexion score 1, number of patients (3 months after treatment): 566
pale complexion score 1, percent of patients (3 months after treatment): (39.12%)
pale complexion score 2, number of patients (3 months after treatment): 172
pale complexion score 2, percent of patients (3 months after treatment): (11.89%)
pale complexion score 3, number of patients (3 months after treatment): 16
pale complexion score 3, percent of patients (3 months after treatment): (1.11%)
palpitation score 0, number of patients (3 months after treatment): 403
palpitation score 0, percent of patients (3 months after treatment): (27.87%)
palpitation score 2, number of patients (3 months after treatment): 759
palpitation score 2, percent of patients (3 months after treatment): (52.49%)
palpitation score 4, number of patients (3 months after treatment): 261
palpitation score 4, percent of patients (3 months after treatment): (18.05%)
palpitation score 6, number of patients (3 months after treatment): 23
palpitation score 6, percent of patients (3 months after treatment): (1.59%)
short breath score 0, % of patients (3 months after treatment): (21.44%)
short breath score 0, number of patients (3 months after treatment): 310
short breath score 3, % of patients (3 months after treatment): (59.13%)
short breath score 3, number of patients (3 months after treatment): 855
short breath score 6, % of patients (3 months after treatment): (18.74%)
short breath score 6, number of patients (3 months after treatment): 271
short breath score 9, % of patients (3 months after treatment): (0.69%)
short breath score 9, number of patients (3 months after treatment): 10
spontaneous perspiration score 0, number of patients (3 months after treatment): 563
spontaneous perspiration score 0, percent of patients (3 months after treatment): (38.93%)
spontaneous perspiration score 1, number of patients (3 months after treatment): 709
spontaneous perspiration score 1, percent of patients (3 months after treatment): (49.03%)
spontaneous perspiration score 2, number of patients (3 months after treatment): 167
spontaneous perspiration score 3, number of patients (3 months after treatment): 7
spontaneous perspiration score 3, percent of patients (3 months after treatment): (0.48%)
total score of TCM symptom, Max (3 months after treatment): 33.00
total score of TCM symptom, Md (3 months after treatment): 10.00
total score of TCM symptom, Mean (3 months after treatment): 10.88
total score of TCM symptom, Min (3 months after treatment): 0.00
change of fatigue 0, % of patients [3]: (63.96%)
change of fatigue 0, number of patients [3]: 923
change of fatigue 2, % of patients [3]: (25.50%)
change of fatigue 2, number of patients [3]: 368
change of fatigue 4, % of patients [3]: (4.16%)
change of fatigue 4, number of patients [3]: 60
change of fatigue 6, % of patients [3]: (0.97%)
change of fatigue 6, number of patients [3]: 14
change of fatigue −2, % of patients [3]: (4.85%)
change of fatigue −2, number of patients [3]: 70
change of fatigue −4, % of patients [3]: (0.42%)
change of fatigue −4, number of patients [3]: 6
change of fatigue −6, % of patients [3]: (0.14%)
change of fatigue −6, number of patients [3]: 2
change of pale complexion 0, number of patients [3]: 1177
change of pale complexion 0, percent of patients [3]: (81.68%)
change of pale complexion 1, number of patients [3]: 217
change of pale complexion 1, percent of patients [3]: (15.06%)
change of pale complexion −1, number of patients [3]: 47
change of pale complexion −1, percent of patients [3]: (3.26%)
change of palpitation 0, number of patients [3]: 943
change of palpitation 0, percent of patients [3]: (65.35%)
change of palpitation 1, number of patients [3]: 356
change of palpitation 1, percent of patients [3]: (24.67%)
change of palpitation 2, number of patients [3]: 39
change of palpitation 2, percent of patients [3]: (2.70%)
change of palpitation 3, number of patients [3]: 5
change of palpitation 3, percent of patients [3]: (0.35%)
change of palpitation −1, number of patients [3]: 99
change of palpitation −1, percent of patients [3]: (6.86%)
change of palpitation −2, number of patients [3]: 1
change of palpitation −2, percent of patients [3]: (0.07%)
change of palpitation −3, number of patients [3]: 0
change of palpitation −3, percent of patients [3]: (0.00%)
change of short breath 0, % of patients [3]: (70.27%)
change of short breath 0, number of patients [3]: 1014
change of short breath 2, % of patients [3]: (21.41%)
